Test results from ChEMBL document CHEMBL4007397, “Discovery of First-in-Class, Potent, and Orally Bioavailable Embryonic Ectoderm Development (EED) Inhibitor with Robust Anticancer Efficacy” (J Med Chem, 2017).
Converted amounts (≈) assume the structure as drawn. Blank lines part the entries; values can stand above or below the molecule they belong to. The source made the active and inactive calls. The rule behind the calls is not given here.

What was measured:
Polycomb protein EED [1] = molecular target: T1, Polycomb protein EED (Homo sapiens, UniProt O75530)
Description: Inhibition of recombinant N-terminal GST-tagged EED (76 to 441 residues) (unknown origin) expressed in Escherichia coli BL21-CodonPlus(DE3)-RIL assessed as reduction in SAH production using H3[21-44,K27Me0) peptide as substrate measured after 20 mins by LC/MS/MS method

Polycomb protein EED [2] = molecular target: T1, Polycomb protein EED; test: Inhibition of EED in human G401 cells assessed as reduction in global H3K27me3 level after 48 hrs by ELISA; type: cell-based
KARPAS-422 [3] = test: Antiproliferative activity against human KARPAS422 cells harboring monoallelic Y641N EZH2 mutation assessed as reduction in cell viability measured every 3 to 4 days up to 14 days by Beckman Coulter-based method; type: functional
[4] = Protein binding in mouse plasma assessed as unbound fraction; type: ADME, cell-free
Mus musculus [5] = test: Dose normalized AUC in CD-1 mouse at 1 mg/kg, iv by LC-MS/MS analysis; type: ADME, organism-based; details: in vivo
Mus musculus [6] = test: Dose normalized AUC in CD-1 mouse at 2 mg/kg, po by LC-MS/MS analysis; type: ADME, organism-based; details: in vivo
Mus musculus [7] = test: Dose normalized unbound AUC in CD-1 mouse at 2 mg/kg, po by LC-MS/MS analysis; type: ADME, organism-based; details: in vivo
Mus musculus [8] = test: (§1) Oral bioavailability in CD-1 mouse at 2 mg/kg by LC-MS/MS analysis; type: ADME, organism-based; details: mouse, in vivo
[9] = Permeability across apical to basolateral side of human Caco2 cells; type: ADME, cell-based; details: Caco-2, read-out: permeability
[10] = Equilibrium solubility of the compound by high-throughput assay; type: physicochemical
[11] = Solubility of the crystalline form of compound at pH 7; type: physicochemical
[12] = Solubility of the crystalline form of compound at pH 3; type: physicochemical
[13] = Solubility of the crystalline form of compound in simulated gastric fluid; type: physicochemical
[14] = Solubility of the crystalline form of compound in fasted state simulated intestinal fluid; type: physicochemical
[15] = Protein binding in Sprague-Dawley rat plasma assessed as unbound fraction; type: ADME, cell-free
[16] = Plasma protein binding in Beagle dog assessed as unbound fraction; type: ADME, cell-free, Canis lupus familiaris
[17] = Protein binding in human plasma assessed as unbound fraction; type: ADME, cell-free
Rattus norvegicus = test: Dose normalized unbound AUC in Sprague-Dawley rat at 2 mg/kg, po by LC-MS/MS analysis; type: ADME, organism-based; details: in vivo
Canis familiaris = test: Dose normalized unbound AUC in Beagle dog at 2 mg/kg, po by LC-MS/MS analysis; type: ADME, organism-based, Canis lupus familiaris; details: in vivo
[18] = Total clearance in Sprague-Dawley rat at 1 mg/kg, iv or 2 mg/kg, po by LC-MS/MS analysis; type: ADME, organism-based; details: in vivo
[19] = Total clearance in Beagle dog at 1 mg/kg, iv or 2 mg/kg, po by LC-MS/MS analysis; type: ADME, organism-based, Canis lupus familiaris; details: in vivo
[20] = Oral bioavailability in Sprague-Dawley rat at 2 mg/kg by LC-MS/MS analysis; type: ADME, organism-based; details: in vivo
[21] = Oral bioavailability in Beagle dog at 2 mg/kg by LC-MS/MS analysis; type: ADME, organism-based, Canis lupus familiaris; details: in vivo
Mus musculus [22] = test: Toxicity in CD-1 mouse assessed as effect on body weight at 300 mg/kg, po BID after 14 day; type: organism-based; details: in vivo, 336 h
KARPAS-422 [23] = test: Antitumor activity against human KARPAS422 cells xenografted in Balb/C nude mouse assessed as tumor regression at 300 mg/kg, po BID for 34 days; type: functional, organism-based
Mus musculus [24] = test: Antitumor activity against human KARPAS422 cells xenografted in Balb/C nude mouse assessed as reduction in tumor volume at 1.5 to 40 mg/kg, po BID for 2 weeks; type: functional, organism-based
Mus musculus [25] = test: In-vivo inhibition of EED in Balb/C nude mouse xenografted with human KARPAS422 cells assessed as decrease in global H3K27me3 level at 1.5 to 40 mg/kg, po BID for 21 days; type: functional, organism-based
in vivo [26] = details: CD-1, mouse, plasma, iv, 1 mg/kg
in vivo [27] = details: CD-1, mouse, iv, 1 mg/kg
Description: Volume of distribution at steady state in CD-1 mouse at 1 mg/kg, iv or 2 mg/kg, po by LC-MS/MS analysis

in vivo [28] = details: CD-1, mouse
Polycomb protein EED [29] = molecular target: T1, Polycomb protein EED; test: Inhibition of recombinant N-terminal GST-tagged EED (76 to 441 residues) (unknown origin) expressed in Escherichia coli BL21-CodonPlus(DE3)-RIL incubated for 20 mins using EED-H3K27me3 peptide based AlphaScreen competition binding assay
[30] = as §1; type: ADME, organism-based; details: CD-1, mouse, in vivo
[31] = Hepatic extraction ratio in mouse liver microsomes; type: ADME, microsome; details: read-out: ERH

T1 sequence (O75530 whole entry): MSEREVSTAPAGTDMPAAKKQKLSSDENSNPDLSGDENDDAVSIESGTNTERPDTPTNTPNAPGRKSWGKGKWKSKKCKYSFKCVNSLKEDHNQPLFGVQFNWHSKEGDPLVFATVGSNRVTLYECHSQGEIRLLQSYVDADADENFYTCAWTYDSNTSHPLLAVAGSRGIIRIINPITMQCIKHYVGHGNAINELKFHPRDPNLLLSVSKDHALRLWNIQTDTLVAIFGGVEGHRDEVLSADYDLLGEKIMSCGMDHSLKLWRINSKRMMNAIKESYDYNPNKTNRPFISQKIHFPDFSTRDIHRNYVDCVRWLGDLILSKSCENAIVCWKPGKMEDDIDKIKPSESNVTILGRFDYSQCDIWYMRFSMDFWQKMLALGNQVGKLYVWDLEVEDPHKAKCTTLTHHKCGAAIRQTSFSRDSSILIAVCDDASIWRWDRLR

SMILES: CN(C)Cc1ccc(-c2cnc(NCc3cnco3)n3cnnc23)cc1
IC50 (Polycomb protein EED [1]): 290 nM

SMILES: c1ccc(-c2ccc(NCc3ccco3)n3cncc23)cc1
IC50 (Polycomb protein EED [1]): 14800 nM

SMILES: Cc1ccc(CNc2c(C#N)cc(-c3ccc(CN(C)C)cc3)c3nncn23)s1
IC50 (Polycomb protein EED [1]): 2220 nM

SMILES: CS(=O)(=O)c1ccc(-c2cnc(NCc3ccco3)n3cnnc23)cc1
IC50 (Polycomb protein EED [1]): 22 nM
IC50 (Polycomb protein EED [2]): 220 nM
IC50 (KARPAS-422 [3]): 80 nM
fraction unbound [4]: 0.144 to 0.15
AUC/dose (Mus musculus [5]): 534 nM·h
AUC/dose (Mus musculus [6]): 5648 nM·h
fAUC/dose (Mus musculus [7]): 813 nM·h
F (Mus musculus [8]): 109%
Papp A→B [9]: 3 ×10⁻⁶ cm/s
solubility thermodynamic [10]: 12 µM (≈ 4.43 µg/mL)
solubility [11]: 25 µg/mL (≈ 67.7 µM)
solubility [12]: 26 µg/mL (≈ 70.4 µM)
solubility [13]: 55 µg/mL (≈ 149 µM)
solubility thermodynamic [14]: 35 µg/mL (≈ 94.7 µM)
fraction unbound [15]: 0.08
fraction unbound [16]: 0.24
fraction unbound [17]: 0.13
fAUC/dose (Rattus norvegicus): 1871 nM·h
fAUC/dose (Canis familiaris): 1907 nM·h
clearance [18]: 14 mL/min/kg
clearance [19]: 16 mL/min/kg
bioavailability [20]: 60%
bioavailability [21]: 68%
Activity (Mus musculus [22]): Non-Toxic
Activity (KARPAS-422 [23]): Active
Activity (Mus musculus [24]): Active
Activity (Mus musculus [25]): Dose-dependent effect
clearance (in vivo [26]): 8 mL/min/kg
Vd (in vivo [27]): 0.8 L/kg
half-life (in vivo [28]): 2.2 h

SMILES: CN(C)Cc1ccc(-c2cnc(NCc3ccon3)n3cnnc23)cc1
IC50 (Polycomb protein EED [1]): 770 nM

SMILES: N#Cc1c2c(c3nncn3c1NCc1ccco1)CN(Cc1ccccc1)CC2
IC50 (Polycomb protein EED [1]): 4030 nM
IC50 (Polycomb protein EED [2]): 3280 nM
IC50 (Polycomb protein EED [29]): 620 nM

SMILES: N#Cc1ccc2nncn2c1NCc1ccco1
IC50 (Polycomb protein EED [1]): 1000 nM

SMILES: Cc1ccsc1CNc1c(C#N)cc(-c2ccc(CN(C)C)cc2)c2nncn12
IC50 (Polycomb protein EED [1]): 21800 nM

SMILES: CN(C)Cc1ccc(-c2cc(C#N)c(NCc3sccc3Cl)n3cnnc23)cc1
IC50 (Polycomb protein EED [1]): 2340 nM

SMILES: Cc1ccc(CNc2ncc(-c3ccc(CN(C)C)cc3)c3nncn23)s1
IC50 (Polycomb protein EED [1]): 12400 nM

SMILES: N#Cc1c2c(c3nncn3c1Cl)CN(Cc1ccccc1)CC2
IC50 (Polycomb protein EED [1]): > 100000 nM

SMILES: CN(C)Cc1ccc(-c2cc(C#N)c(NCc3ccc(F)s3)n3cnnc23)cc1
IC50 (Polycomb protein EED [1]): 510 nM

SMILES: CCN(c1cc(-c2ccc(CN3CCOCC3)cc2)cc(C(=O)NCc2c(C)cc(C)[nH]c2=O)c1C)C1CCOCC1 [TAZEMETOSTAT]
IC50 (KARPAS-422 [3]): 12 nM
fraction unbound [4]: 0.014
AUC/dose (Mus musculus [5]): 1303 nM·h
AUC/dose (Mus musculus [6]): 254 nM·h
fAUC/dose (Mus musculus [7]): 4 nM·h
bioavailability [30]: 20%
clearance (in vivo [26]): 22 mL/min/kg
Vd (in vivo [27]): 1.2 L/kg
half-life (in vivo [28]): 1.6 h

SMILES: CN(C)Cc1ccc(-c2cnc(NCc3ccc(F)s3)n3cnnc23)cc1
IC50 (Polycomb protein EED [1]): 150 nM

SMILES: N#Cc1cc(-c2ccccc2F)c2nncn2c1NCc1ccco1
IC50 (Polycomb protein EED [1]): 30 nM
IC50 (Polycomb protein EED [2]): 210 nM
IC50 (KARPAS-422 [3]): 76 nM
hepatic extraction ratio [31]: 0.8
fraction unbound [4]: 0.0281
AUC/dose (Mus musculus [5]): 1751 nM·h
AUC/dose (Mus musculus [6]): 714 nM·h
fAUC/dose (Mus musculus [7]): 20.1 nM·h
bioavailability [30]: 42%

SMILES: COc1ccccc1CNc1c(C#N)cc(-c2ccc(CN(C)C)cc2)c2nncn12
IC50 (Polycomb protein EED [1]): 14900 nM

SMILES: c1coc(CNc2ncc(-c3ccc(CN4CCCC4)cc3)c3nncn23)c1
IC50 (Polycomb protein EED [1]): 7 nM
IC50 (Polycomb protein EED [2]): 32 nM
IC50 (KARPAS-422 [3]): 88 nM
hepatic extraction ratio [31]: 0.52
fraction unbound [4]: 0.381
AUC/dose (Mus musculus [5]): 765 nM·h
AUC/dose (Mus musculus [6]): 531 nM·h
fAUC/dose (Mus musculus [7]): 202 nM·h
bioavailability [30]: 71%

SMILES: CN(C)Cc1ccc(-c2cc(C#N)c(NCc3ccccc3)n3cnnc23)cc1
IC50 (Polycomb protein EED [1]): 21800 nM

The next lines start with the values.

IC50 (Polycomb protein EED [1]): 150 nM
SMILES: CN(C)Cc1ccc(-c2cc(C#N)c(NCc3cnco3)n3cnnc23)cc1

IC50 (Polycomb protein EED [1]): 62 nM
SMILES: N#Cc1cc(-c2ccccc2)c2nncn2c1NCc1ccco1

IC50 (Polycomb protein EED [1]): 130 nM
SMILES: CN(C)Cc1ccc(-c2cnc(NCc3ccno3)n3cnnc23)cc1

IC50 (Polycomb protein EED [1]): 49 nM
SMILES: CN(C)Cc1ccc(-c2cnc(NCc3ccccc3)n3cnnc23)cc1

IC50 (Polycomb protein EED [1]): 94 nM
SMILES: COc1ccccc1CNc1ncc(-c2ccc(CN(C)C)cc2)c2nncn12

IC50 (Polycomb protein EED [1]): 53 nM
SMILES: CN(C)Cc1ccc(-c2cnc(NCc3sccc3Cl)n3cnnc23)cc1

IC50 (Polycomb protein EED [1]): 49 nM
SMILES: Cc1ccsc1CNc1ncc(-c2ccc(CN(C)C)cc2)c2nncn12

IC50 (Polycomb protein EED [1]): 20 nM
SMILES: CN(C)Cc1ccc(-c2cc(C#N)c(NCc3cccs3)n3cnnc23)cc1

IC50 (Polycomb protein EED [1]): 9 nM
SMILES: CN(C)Cc1ccc(-c2cc(C#N)c(NCc3ccoc3)n3cnnc23)cc1

IC50 (Polycomb protein EED [1]): 13 nM
SMILES: CN(C)Cc1ccc(-c2cnc(NCc3ccco3)n3cnnc23)cc1

IC50 (Polycomb protein EED [1]): 69 nM
SMILES: CN(C)Cc1ccc(-c2cc(C#N)c(NCc3ccno3)n3cnnc23)cc1

IC50 (Polycomb protein EED [1]): 9 to 13 nM
SMILES: CN(C)Cc1ccc(-c2cc(C#N)c(NCc3ccco3)n3cnnc23)cc1

IC50 (Polycomb protein EED [1]): 69 nM
SMILES: CN(C)Cc1ccc(-c2cc(C#N)c(NCc3ccon3)n3cnnc23)cc1

IC50 (Polycomb protein EED [1]): 19 nM
SMILES: CN(C)Cc1ccc(-c2cnc(NCc3ccoc3)n3cnnc23)cc1

IC50 (Polycomb protein EED [1]): 52 nM
SMILES: c1ccc(-c2cnc(NCc3ccco3)n3cnnc23)cc1

IC50 (Polycomb protein EED [1]): 93 nM
SMILES: CN(C)Cc1ccc(-c2cnc(NCc3cccs3)n3cnnc23)cc1
